Data from patent publication US11034661B2, “Substituted N′-hydroxycarbamimidoyl-1,2,5-oxadiazole compounds as indoleamine 2,3-dioxygenase IDO inhibitors” (Merck Sharp & Dohme Corp., priority 2017, dated 2021).

Legend:
[1] = biological target: IDO1 in Hela cells stimulated with IFNγ (Homo sapiens (Human), UniProt P14902); assay: IDO1 Cellular Assay in Hela Cells Stimulated with IFNγ; assay type: cell-based; settings: IFNγ 100 ng/mL, about 48 hours, fluorescence readout, read-out: IDO1 HELA Cell Assay, IC50
Sequence of IDO1 in Hela cells stimulated with IFNγ (P14902 whole entry): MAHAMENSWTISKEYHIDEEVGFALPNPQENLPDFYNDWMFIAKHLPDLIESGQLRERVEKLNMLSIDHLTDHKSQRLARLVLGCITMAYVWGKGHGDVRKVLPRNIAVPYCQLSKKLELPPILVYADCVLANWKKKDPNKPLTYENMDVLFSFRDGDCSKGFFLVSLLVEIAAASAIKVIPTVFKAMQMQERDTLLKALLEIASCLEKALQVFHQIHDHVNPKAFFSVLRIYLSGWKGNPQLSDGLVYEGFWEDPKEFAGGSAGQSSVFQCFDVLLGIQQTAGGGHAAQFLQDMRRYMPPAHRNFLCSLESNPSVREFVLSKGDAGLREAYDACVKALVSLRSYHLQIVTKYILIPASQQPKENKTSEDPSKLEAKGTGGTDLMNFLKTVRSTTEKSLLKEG
Experimental: IDO1 Cellular Assay in Hela Cells Stimulated with IFNγ
Hela cells were cultured in complete Hela culture medium (90% EMEM, 10% heat-inactivated fetal bovine serum) and expanded to about 1×10^9 cells. The cells were then collected and frozen down at 10×10^6 cells/vial in 1 mL frozen medium (90% complete Hela culture medium, 10% DMSO)
Compounds to be tested were serially diluted in ten 3-fold steps in DMSO starting from 10 mM DMSO stocks in Echo low volume plate(s). Compound dilutions or DMSO alone were then dispensed from the dilution plate(s) into Greiner black 384-well assay plate(s) (catalog #781086, 50 nL/well) using an Echo 550 acoustic liquid handler (Labcyte).
Frozen Hela cells were thawed and transferred into Hela assay medium (99% complete Hela culture medium, 1% Pen/Strep) with 20 mL medium/vial of cells. The cells were spun down at 250 g in a table top centrifuge for 5 min and suspended in same volume of Hela assay medium. The cells were then counted and adjusted to a density of 2×10^5 cells/ml in Hela assay medium. Sterile L-tryptophan were added to the cells with final concentration of 300 uM L-tryptophan. A small aliquot (2 mL/plate) of Hela cells were set aside and were not treated with IFNγ, to serve as the Max-E control. The rest of Hela cells were added with sterile IFNγ (Cat #285-IF, R & D systems) with a final concentration of 100 ng/mL.
Hela cells with and without IFNγ were dispensed to the respective wells of 384-well assay plates containing the compounds. The plates were incubated for about 48 hours at a 37° C., 5% CO2 incubator. Afterwards, 12 μL of 0.5 M methyl isonipecotate in dimethyl sulfoxide were added into each well and the plates were sealed and incubated at 37° C. without CO2 overnight. The plates were centrifuged for 1 min at 200×g. The resulting fluorescence was measured in a Spectramax plate reader (Molecular Devices) with a 400 nm excitation filter and a 510 nm emission filter.
The fluorescence intensity of each well was corrected for the background observed in wells with non-IFNγ-treated cells and was expressed as a fraction of the intensity observed in wells of IFNγ-treated cells and DMSO only. Potencies were calculated by linear least squares fit to the four parameter logistic IC50 equation.

[2] = biological target: HIS-tagged IDO1 protein (Homo sapiens (Human), UniProt P14902); assay: IDO1 Enzyme Assay; assay type: biochemical; settings: recombinant IDO1 40 nM, tryptophan substrate, fluorescence readout
Sequence of HIS-tagged IDO1 protein (P14902 whole entry): as above
Experimental: Biological Assays IDO1 Enzyme Assay
Compounds to be tested were serially diluted in ten 3-fold steps in DMSO starting from 10 mM DMSO stocks. Compound dilutions or DMSO alone were then dispensed from the dilution plate into a Greiner black 384-well assay plate (catalog #781086) using an Echo 555 acoustic liquid handler (Labcyte).
HIS-tagged IDO1 protein was recombinantly expressed in Escherichia coli using ZYP5052 autoinduction media supplemented with 500 μM delta aminolevulinic acid for 48 hours at 16 degrees Celsius. IDO1 protein was purified using Ni^2+-affinity resin and size exclusion chromatography. Purified protein was then diluted in assay buffer (50 mM Tris pH 7.0, 1% glycerol, 20 μM methylene blue, 0.05% Tween-20, 20 mM sodium ascorbate, 100 units/mL catalase to obtain a final IDO1 concentration of 40 nM. IDO1 solution […] or buffer alone […] was dispensed to wells of the assay plate using a BioRAPTR liquid dispenser (Beckman Coulter). Assay plates containing compound and IDO1 enzyme were incubated at room temperature for 30 minutes. Afterwards, 10 μL of 400 μM tryptophan in assay buffer were added to each well of the assay plate using a BioRAPTR liquid dispenser. Plates were incubated at room temperature for 60 minutes and reactions were quenched by addition of 10 μL of 0.5 M methyl isonipecotate in dimethyl sulfoxide. Plates were sealed and incubated at 37 degrees Celsius for 4 hours or 50 degrees Celsius for 2 hours. The plates are allowed to cool and then centrifuged for 1 minute at 1000×g. The resulting fluorescence was measured in an Envision plate reader (Perkin Elmer) with a 400/25 nm excitation filter and an 510/20 nm emission filter.
Potencies were calculated by linear least squares fit to the four parameter logistic IC50 equation.

SMILES | IC50 [1] | IC50 [2]
C[C@H](CO)NC(=O)COc1nonc1/C(=N/O)N[C@H]1Cc2ccc(F)cc21 [Example 8, 2-[(4-{N-[(7S)-4-fluorobicyclo[4.2.0]octa-1,3,5-trien-7-yl]-N′-hydroxycarbamimidoyl}-1,2,5-oxadiazol-3-yl)oxy]-N-[(2R)-1-hydroxypropan-2-yl]acetamide] | 416 nM | 110 nM
C[C@H](O)CNC(=O)COc1nonc1/C(=N/O)N[C@H]1Cc2ccc(F)cc21 [Example 9, 2-[(4-{N-[(7S)-4-fluorobicyclo[4.2.0]octa-1,3,5-trien-7-yl]-N′-hydroxycarbamimidoyl}-1,2,5-oxadiazol-3-yl)oxy]-N-[(2S)-2-hydroxypropyl]acetamide] | 624 nM | 413 nM
C[C@@H](O)CNC(=O)COc1nonc1/C(=N/O)N[C@H]1Cc2ccc(F)cc21 [Example 10, 2-[(4-{N-[(7S)-4-fluorobicyclo[4.2.0]octa-1,3,5-trien-7-yl]-N′-hydroxycarbamimidoyl}-1,2,5-oxadiazol-3-yl)oxy]-N-[(2R)-2-hydroxypropyl]acetamide] | 335 nM | 100 nM
O=C(COc1nonc1/C(=N/O)NC1Cc2ccc(F)cc21)NCC(O)CO (stereo not drawn) [Example 12, N-(2,3-dihydroxypropyl)-2-({4-[N-(4-fluorobicyclo[4.2.0]octa-1,3,5-trien-7-yl)-N′-hydroxycarbamimidoyl]-1,2,5-oxadiazol-3-yl}oxy)acetamide] | 920 nM | 700 nM
O=C(COc1nonc1/C(=N/O)N[C@H]1CCc2ccc(F)cc21)NCCO [Example 13, 2-[(4-{N-[(1S)-6-fluoro-2,3-dihydro-1H-inden-1-yl]-N′-hydroxycarbamimidoyl}-1,2,5-oxadiazol-3-yl)oxy]-N-(2-hydroxyethyl)acetamide] | 774 nM | 483 nM
CC(C)(O)CNC(=O)COc1nonc1/C(=N/O)NC1Cc2ccc(F)cc21 (stereo not drawn) [Example 14, 2-({4-[N-(4-fluorobicyclo[4.2.0]octa-1,3,5-trien-7-yl)-N′-hydroxycarbamimidoyl]-1,2,5-oxadiazol-3-yl}oxy)-N-(2-hydroxy-2-methylpropyl)acetamide] | 770 nM | 985 nM
NC(=O)N(CCO)CCOc1nonc1/C(=N/O)NC1Cc2ccc(F)cc21 (stereo not drawn) [Example 15, 4-{2-[carbamoyl(2-hydroxyethyl)amino]ethoxy}-N-(4-fluorobicyclo[4.2.0]octa-1,3,5-trien-7-yl)-N′-hydroxy-1,2,5-oxadiazole-3-carboximidamide] | 685 nM | 479 nM
O=C(COc1nonc1/C(=N/O)N[C@H]1Cc2ccc(F)cc21)NC[C@@H](O)CO [Example 16, N-[(2R)-2,3-dihydroxypropyl]-2-[(4-{N-[(7S)-4-fluorobicyclo[4.2.0]octa-1,3,5-trien-7-yl]-N′-hydroxycarbamimidoyl}-1,2,5-oxadiazol-3-yl)oxy]acetamide] | 509 nM | 447 nM
NC(=O)COc1nonc1/C(=N/O)N[C@H]1Cc2ccc(F)cc21 [Example 17, 2-[(4-{N-[(7S)-4-fluorobicyclo[4.2.0]octa-1,3,5-trien-7-yl]-N′-hydroxycarbamimidoyl}-1,2,5-oxadiazol-3-yl)oxy]acetamide] | 220 nM | 186 nM
NC(=O)NCCCOc1nonc1/C(=N/O)N[C@H]1Cc2ccc(F)cc21 [Example 18, 4-[3-(carbamoylamino)propoxy]-N-[(7S)-4-fluorobicyclo[4.2.0]octa-1,3,5-trien-7-yl]-N′-hydroxy-1,2,5-oxadiazole-3-carboximidamide] | 301 nM | 74.7 nM
CC(C)(Oc1nonc1/C(=N/O)NC1Cc2ccc(F)cc21)C(=O)NCCO (stereo not drawn) [Example 19, 2-({4-[N-(4-fluorobicyclo[4.2.0]octa-1,3,5-trien-7-yl)-N′-hydroxycarbamimidoyl]-1,2,5-oxadiazol-3-yl}oxy)-N-(2-hydroxyethyl)-2-methylpropanamide] | 2850 nM | 7790 nM
O=C(NCCOc1nonc1/C(=N/O)N[C@H]1Cc2ccc(F)cc21)[C@H](O)CO [Example 20, (2R)-N-{2-[(4-{N-[(7S)-4-fluorobicyclo[4.2.0]octa-1,3,5-trien-7-yl]-N′-hydroxycarbamimidoyl}-1,2,5-oxadiazol-3-yl)oxy]ethyl}-2,3-dihydroxypropanamide] | 2360 nM | 302 nM
O/N=C(\N[C@H]1Cc2ccc(F)cc21)c1nonc1OC1CNC1 [Example 21, 4-[(azetidin-3-yl)oxy]-N-[(7S)-4-fluorobicyclo[4.2.0]octa-1,3,5-trien-7-yl]-N′-hydroxy-1,2,5-oxadiazole-3-carboximidamide] | 1780 nM | 224 nM
O=C(NCCOc1nonc1/C(=N/O)N[C@H]1Cc2ccc(F)cc21)c1nc[nH]n1 [Example 22, N-{2-[(4-{N-[(7S)-4-fluorobicyclo[4.2.0]octa-1,3,5-trien-7-yl]-N′-hydroxycarbamimidoyl}-1,2,5-oxadiazol-3-yl)oxy]ethyl}-1H-1,2,4-triazole-3-carboxamide] | 308 nM | 264 nM
CC(Oc1nonc1/C(=N/O)NC1Cc2ccc(F)cc21)C(=O)NCCO (stereo not drawn) [Example 23, 2-({4-[N-(4-fluorobicyclo[4.2.0]octa-1,3,5-trien-7-yl)-N′-hydroxycarbamimidoyl]-1,2,5-oxadiazol-3-yl}oxy)-N-(2-hydroxyethyl)propanamide] | 1930 nM | 1670 nM
NS(=O)(=O)NCCOc1nonc1/C(=N/O)N[C@H]1CCc2ccc(F)cc21 [Example 24, N-[(1S)-6-fluoro-2,3-dihydro-1H-inden-1-yl]-N′-hydroxy-4-[2-(sulfamoylamino)ethoxy]-1,2,5-oxadiazole-3-carboximidamide] | 1300 nM | 421 nM
O=C(CO)N1CC[C@H](Oc2nonc2/C(=N/O)N[C@H]2Cc3ccc(F)cc32)C1 [Example 25, N-[(7S)-4-fluorobicyclo[4.2.0]octa-1,3,5-trien-7-yl]-N′-hydroxy-4-{[(3S)-1-(hydroxyacetyl)pyrrolidin-3-yl]oxy}-1,2,5-oxadiazole-3-carboximidamide] | 2000 nM | 1200 nM
O=C(NCCOc1nonc1/C(=N/O)N[C@H]1Cc2ccc(F)cc21)[C@@H](O)CO [Example 26, (2S)-N-{2-[(4-{N-[(7S)-4-fluorobicyclo[4.2.0]octa-1,3,5-trien-7-yl]-N′-hydroxycarbamimidoyl}-1,2,5-oxadiazol-3-yl)oxy]ethyl}-2,3-dihydroxypropanamide] | 284 nM | 214 nM
CS(=O)(=O)CCOc1nonc1/C(=N/O)N[C@H]1Cc2ccc(F)cc21 [Example 27, N-[(7S)-4-fluorobicyclo[4.2.0]octa-1,3,5-trien-7-yl]-N′-hydroxy-4-[2-(methylsulfonyl)ethoxy]-1,2,5-oxadiazole-3-carboximidamide] | 1330 nM | 1480 nM
O/N=C(\N[C@H]1Cc2ccc(F)cc21)c1nonc1OCCn1cnnc1 [Example 28, N-[(7S)-4-fluorobicyclo[4.2.0]octa-1,3,5-trien-7-yl]-N′-hydroxy-4-[2-(4H-1,2,4-triazol-4-yl)ethoxy]-1,2,5-oxadiazole-3-carboximidamide] | 561 nM | 396 nM
NS(=O)(=O)CCCOc1nonc1/C(=N/O)N[C@H]1Cc2ccc(F)cc21 [Example 29, N-[(7S)-4-fluorobicyclo[4.2.0]octa-1,3,5-trien-7-yl]-N′-hydroxy-4-(3-sulfamoylpropoxy)-1,2,5-oxadiazole-3-carboximidamide] | 147 nM | 73.1 nM
